A short description of data set [1]: Distribution coefficient (logD7.4), shake-flask n-octanol/buffered water. Particulars: n-octanol/phosphate buffered saline pH 7.4, shake-flask. The data set is classed as physicochemical. The protocol: The n-octanol-water coefficients of the phosphane derivatives were determined as previously reported using a shake-flask method. Briefly: Buffered-saline distilled water (100 mL, phosphate buffer [PO4^3−] = 10 mM, [NaCl] = 0.15 M, pH 7.4) and n-octanol (100 mL) were shaken together for 72 h to allow saturation of both phases. 1 mg of the complexes was dissolved in 5 mL of the aqueous phase and 5 mL of the organic phase were added, mixing for 10 min. The concentration of the complexes in the organic and aqueous phases were then determined using UV absorbance spectroscopy. LogD7.4 = log{[compound(organic phase)]/[compound(aqueous phase)]}.
The lipophilicity can be measured by the partition coefficient water/n-octanol, logD, by experimental procedures such as the shake flask method, which affords the distribution of the drug between an equal amount of n-octanol and water (or buffered aqueous solution).

A further data set has as its system Caco-2/TC7 cells. Kind of data set: MTT cytotoxicity / antiproliferative assay on Caco-2/TC7 cells. Format: cell-based, human. How it is done:
Human fibroblast cells were kindly provided by Dr. Julio Montoya (Unidad de Bioquímica, Facultad de Veterinaria, Universidad de Zaragoza, Spain). Caco-2 cells (passages 40–70) and fibroblasts (passages 10–30) were maintained in a humidified atmosphere of 5% CO2 at 37 °C. Cells were grown in Dulbecco’s Modified Eagles medium (DMEM) (Gibco Invitrogen, Paisley, UK) supplemented with 20% fetal bovine serum (FBS), 1% non-essential amino acids, 1% penicillin (1000 U/mL), 1% streptomycin (1000 μg/mL) and 1% amphotericin (250 U/mL). […] Caco-2 cells were sub-cultured on 25 cm^2 plastic flasks at a density of 1.2 × 10^4 cells/cm^2, while fibroblasts were sub-cultured on 75 cm^2 plastic flasks at a density of 1 × 10^4 cells/cm^2. Culture medium was replaced every 2 days.
(§1) Gold complex was diluted in dimethyl sulfoxide (DMSO) to a stock solution at 20 mM and then re-diluted to a working solution at 2.5 mM before diluting it in cell culture medium to treat cells at desired concentrations.
The influence of hyperthermia was studied by incubating cells at 40 °C for 1 h immediately after treating them with the gold complexes.
For cytotoxicity screening assays, Caco-2 cells were seeded in 96-well plates at a density of 4 × 10^3 cells/well. Culture medium was replaced with medium containing drug panel 24 h post-seeding and cells were incubated for 72 h. In fibroblasts, culture medium containing metal gold complexes was added 10 days post-seeding. Antiproliferative effect was measured with MTT assay as previously described by Mármol et al.. […] To determine the selectivity index (SI) the IC50 value in fibroblasts was divided by IC50 value in Caco-2, obtaining a ratio cancerous/normal cells toxicity.

Another data set deals with Human fibroblast cells. Kind of data set: MTT cytotoxicity assay on fibroblasts. The data set is classed as cell-based. Particulars: for fibroblasts viability when treated at the IC50 value in Caco-2: 3a 2.5 µM, 3b 5.1 µM, 2a 12.3 µM, 2b 10.5 µM; for IC50: MTT, mean ± SE. How it is done:
Human Caco-2 cell line (TC7 clone) was kindly provided by Dr. Edith Brot-Laroche (Université Pierre et Marie Curie-Paris 6, UMR S 872, Les Cordeliers, France). Human fibroblast cells were kindly provided by Dr. Julio Montoya (Unidad de Bioquímica, Facultad de Veterinaria, Universidad de Zaragoza, Spain). Caco-2 cells (passages 40–70) and fibroblasts (passages 10–30) were maintained in a humidified atmosphere of 5% CO2 at 37 °C. Cells were grown in Dulbecco’s Modified Eagles medium (DMEM) (Gibco Invitrogen, Paisley, UK) supplemented with 20% fetal bovine serum (FBS), 1% non-essential amino acids, 1% penicillin (1000 U/mL), 1% streptomycin (1000 μg/mL) and 1% amphotericin (250 U/mL). The cells were passaged enzymatically with 0.25% trypsin-1 mM EDTA. Caco-2 cells were sub-cultured on 25 cm^2 plastic flasks at a density of 1.2 × 10^4 cells/cm^2, while fibroblasts were sub-cultured on 75 cm^2 plastic flasks at a density of 1 × 10^4 cells/cm^2. Culture medium was replaced every 2 days.
as §1
For cytotoxicity screening assays, Caco-2 cells were seeded in 96-well plates at a density of 4 × 10^3 cells/well. Culture medium was replaced with medium containing drug panel 24 h post-seeding and cells were incubated for 72 h. In fibroblasts, culture medium containing metal gold complexes was added 10 days post-seeding. Antiproliferative effect was measured with MTT assay as previously described by Mármol et al.. Absorbance at 540/620 nm was measured with SPECTROstar Nano (BMG Labtech). To determine the selectivity index (SI) the IC50 value in fibroblasts was divided by IC50 value in Caco-2, obtaining a ratio cancerous/normal cells toxicity.

A further data set has as its target T1, Recombinant Human TrxR1 (Homo sapiens, UniProt Q16881).
T1 construct: purchased Sigma-Aldrich SRP6081
T1 sequence (Q16881 151-649 limits assumed): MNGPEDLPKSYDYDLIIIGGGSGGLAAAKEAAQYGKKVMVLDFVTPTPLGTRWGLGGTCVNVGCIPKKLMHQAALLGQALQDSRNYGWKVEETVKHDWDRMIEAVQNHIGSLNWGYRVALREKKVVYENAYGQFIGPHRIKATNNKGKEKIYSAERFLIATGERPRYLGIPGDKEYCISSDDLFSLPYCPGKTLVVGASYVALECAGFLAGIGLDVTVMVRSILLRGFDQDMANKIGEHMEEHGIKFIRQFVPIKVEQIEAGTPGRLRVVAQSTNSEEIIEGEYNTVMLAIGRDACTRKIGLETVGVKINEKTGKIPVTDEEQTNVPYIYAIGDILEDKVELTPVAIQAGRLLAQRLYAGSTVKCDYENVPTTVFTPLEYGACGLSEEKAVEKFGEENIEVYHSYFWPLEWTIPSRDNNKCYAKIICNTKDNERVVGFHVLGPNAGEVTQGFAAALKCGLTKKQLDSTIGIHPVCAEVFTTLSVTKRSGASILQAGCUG
Kind of data set: Thioredoxin reductase 1 (TrxR1) activity assay. The data set is classed as biochemical. Particulars: auranofin 25 µM; 3a and 3b at IC50 concentrations. The protocol: Recombinant Human TrxR1 (Sigma-Aldrich SRP6081, St. Louis, MO, USA) was incubated in a 96 well plate with different concentration of Au complex previously dissolved in 25 μL of PBS at pH 7.4. The cell solution was incubated in shake motion for 5 min at 37 °C. After incubation time, procedure in Thioredoxin Reductase Assay Kit (Sigma-Aldrich CS0170, St. Louis, MO, USA) was followed. Finally, reaction was started by adding 6 μL DNTB and absorbance at 405 nm was recorded every 30 s for 22 min as a measure of Thioredoxin Reductase Activity.

Where [2] appears, read: 72 h, MTT, 37 °C, mean ± SE, read-out: IC50 Caco-2/TC7 37 °C.
Setting [3] is: read-out: IC50 Caco-2/TC7 40 °C, 72 h, MTT, 1 h at 40 °C immediately after treatment (hyperthermia), mean ± SE.
Setting [4] is: Homo sapiens, Caco2/TC7, read-out: IC50 Caco-2/TC7 40 °C.

Read-outs that look alike come from different tables or passages of the source.

`FC(F)(F)C(F)(F)C(F)(F)C(F)(F)C(F)(F)C(F)(F)CC[N+]12CN3CN(C1)C[PH]([Au][Cl])(C3)C2.O=S(=O)([O-])C(F)(F)F` [Complex 1b, [AuCl(PTA-CH2CH2(CF2)5CF3)]TfO] yielded a logD7.4 in data set [1] of 0.63. For the same compound, the values for the IC50 in the data set with Caco-2/TC7 cells (setting [2]) and in the data set on Caco-2/TC7 cells (setting [3]) were 5.98 ± 1.8 µM and 4.46 ± 0.79 µM, respectively.
In turn, `CCCCCCCC[N+]12CN3CN(C1)C[P+]([Au-2]([Cl])[P+]14CN5CN(C[N+](CCCCCCCC)(C5)C1)C4)(C3)C2.[I-].[I-]` [Complex 2a, [AuCl(PTA-CH2(CH2)6CH3)2]I2] gave a logD7.4 in data set [1] of −0.12. Further, the IC50 in the data set with Caco-2/TC7 cells (setting [2]) is 12.3 ± 1.18 µM; in the data set on Caco-2/TC7 cells (setting [3]), 10.4 ± 0.51 µM; in the data set with Human fibroblast cells, 13.5 ± 0.97 µM. For the same compound, the “fibroblasts viability when treated at the IC50 value in Caco-2” value in the data set on Human fibroblast cells was “nearly two-fold reduction in the viability of fibroblasts”. Also, the “Selectivity Index (SI)” value in the data set with Human fibroblast cells (IC50 fibroblasts/IC50 Caco-2) worked out at 1.09.
In data set [1], `FC(F)(F)C(F)(F)C(F)(F)C(F)(F)C(F)(F)C(F)(F)CC[N+]12CN3CN(C1)C[P+]([Au-2]([Cl])[P+]14CN5CN(C[N+](CCC(F)(F)C(F)(F)C(F)(F)C(F)(F)C(F)(F)C(F)(F)F)(C5)C1)C4)(C3)C2.O=S(=O)([O-])C(F)(F)F.O=S(=O)([O-])C(F)(F)F` [Complex 2b, [AuCl(PTA-CH2CH2(CF2)5CF3)2](TfO)2] yielded a logD7.4 of 0.82. Further, the results for the IC50 with Caco-2/TC7 cells (setting [2]), in the data set on Caco-2/TC7 cells (setting [3]) and in the data set with Human fibroblast cells were 10.7 ± 0.6 µM, 9 ± 0.39 µM and 11.6 ± 1.05 µM, respectively. In addition, the “fibroblasts viability when treated at the IC50 value in Caco-2” value in the data set on Human fibroblast cells is given as “nearly two-fold reduction in the viability of fibroblasts”.
Regarding `CCCCCCCC[N+]12CN3CN(CP(C3)C1)C2` [La, [PTA-CH2(CH2)6CH3]I], the IC50 in the data set with Caco-2/TC7 cells was determined as 49.32 ± 0.02 µM; in the data set with Caco-2/TC7 cells (setting [4]), 47.1 ± 0.92 µM.
The matching figures for `FC(F)(F)C(F)(F)C(F)(F)C(F)(F)C(F)(F)C(F)(F)CC[N+]12CN3CN(CP(C3)C1)C2` [Lb, [PTA-CH2CH2(CF2)5CF3]TfO]: 27.2 ± 7.56 µM and 24 ± 6.6 µM.
On to `CC(=O)OC[C@H]1O[C@@H]([S-])[C@H](OC(C)=O)[C@@H](OC(C)=O)[C@@H]1OC(C)=O.CCP(CC)CC.[Au+]` [auranofin, reference compound], for which the “TrxR1 activity related to control” value on Recombinant Human TrxR1 was “Inhibitory effect”.

(Values after article PMC8698759, “Gold(I) Complexes Bearing Alkylated 1,3,5-Triaza-7-phosphaadamantane Ligands as Thermoresponsive Anticancer Agents in Human Colon Cells” (Biomedicines, 2021).)
